In patent US20210113501A1, “METHOD OF ADMINISTERING BETA-HYDROXY-BETA-METHYLBUTYRATE (HMB)” (Metabolic Technologies, Inc., priority 2009, published 2021):

Test: Study 1 blood chemistry
Format: in vivo, human
Settings: for Gamma-glutamyl: in U/L (unit assumed)
Description: Study 1 design. For study 1 the subjects reported to the laboratory in the morning following an overnight fast. Before ingestion of one of the supplemental treatments, a flexible sterile polyethylene catheter was inserted into a forearm vein using sterile procedures and a pre-ingestion blood sample was drawn. Subsequent blood samples were taken at 0, 2, 5, 10, 15, 25, 35, 45, 60, 90, 120 and 180 min after ingestion of the treatment. Plasma was separated and samples were stored frozen at −70° C. for analysis of HMB concentration. In addition, a portion of the pre-ingestion and 180 minute blood samples were used for measurements (LabCorp, Kansas City, Mo.) of glucose, uric acid, blood urea nitrogen (BUN), creatinine, sodium, potassium, chloride, carbon dioxide, phosphorous, protein, albumin, globulin, albumin:globulin ratio, total bilirubin, direct bilirubin, alkaline phosphatase, lactate dehydrogenase, aspartate aminotransferase (AST), alanine aminotransferase (ALT), gamma-glutamyl transpeptidase (GGT), iron binding capacity (TIBC), unsaturated iron binding capacity (UIBC), iron, iron saturation, total cholesterol, triglycerides, high density lipoprotein (HDL), low density lipoprotein (LDL), and cholesterol ratio. A complete blood count (CBC) was also performed before and after the 180 min treatment period. Subjects also completed a brief questionnaire to report any physical symptoms (such as nausea, headache, etc) they may have experienced during the experiment.
The data were analyzed using a crossover design with Proc GLM in SAS. (45) For the timed sampling of plasma HMB a repeated measures polynomial model was used. The model included subject, order, and treatment main effects and time by treatment interaction where appropriate. For other parameters Proc GLM was also used with subject, order, and treatment main effects and the p values are reported for the treatment main effect. Statistical significance was determined for p<0.05 and a trend was determined for 0.05<p<0.10.

[1] = After (180 min), listed as Free Acid Gel Sublingual
[2] = Before to After, listed as Free Acid Gel Sublingual
[3] = Before, listed as Free Acid Gel Sublingual

With `CC(C)(O)CC(=O)O` [HMB-Acid Gel Sublingual, 3-hydroxy-3-methylbutyric acid] the Albumin (After (180 min)) was 4.1 ± 0.2 g/dL, the “Direct Bilirubin” value (After (180 min)) was 0.1 ± 0.01 mg/dL and the “Iron Saturation” value (After (180 min)) was 30.9 ± 8.5%. The “A:G Ratio” value [1] was 1.8 ± 0.1, the “Alanine Aminotransferase” value [1] was 17.3 ± 2.7 IU/L and the “Alkaline Phosphatase” value [1] was 66.8 ± 6.8 IU/L. The “Aspartate Aminotransferase” value [1] was 28.3 ± 8.2 IU/L, the “Blood Urea Nitrogen” value [1] was 12.9 ± 0.8 mg/dL and the CO2 [1] was 24.3 ± 0.6 mEq/L. For the same compound, the Chloride [1] was 102.4 ± 1.1 mEq/L, the “Cholesterol Ratio” value [1] was 3.3 ± 0.2 and the Creatinine [1] was 1.0 ± 0.04 mg/dL. For the same compound, the Globulin [1] was 2.3 ± 0.1 g/dL, the Glucose [1] was 77.4 ± 2.5 mg/dL and the HDL [1] was 49.3 ± 4.3 mg/dL. For the same compound, the Iron [1] was 94.6 ± 16.6 µg/dL, the “Iron Binding Capacity” value [1] was 339.5 ± 30.8 µg/dL and the LDL [1] was 89.4 ± 4.9 mg/dL. For the same compound, the “Lactate Dehydrogenase” value [1] was 167.3 ± 12.2 IU/L, the Phosphorus [1] was 3.5 ± 0.2 mg/dL and the Potassium [1] was 4.5 ± 0.1 mEq/L. For the same compound, the Protein [1] was 6.4 ± 0.2 g/dL, the Sodium [1] was 137.8 ± 0.9 mEq/L and the “Total Bilirubin” value [1] was 0.5 ± 0.05 mg/dL. For the same compound, the “Total Cholesterol” value [1] was 155.5 ± 5.8 mg/dL, the Triglycerides [1] was 83.8 ± 15.8 mg/dL and the UIBC [1] was 244.9 ± 39.5 µg/dL. The “Uric Acid” value [1] was 4.0 ± 0.5 mg/dL, the Gamma-glutamyl [1] was 13.4 ± 1.2 and the “A:G Ratio” value (Before) was 1.9 ± 0.1. For the same compound, the Creatinine (Before) was 1.0 ± 0.1 mg/dL, the “Direct Bilirubin” value (Before) was 0.1 ± 0.01 mg/dL and the “Total Bilirubin” value (Before) was 0.4 ± 0.05 mg/dL. The “A:G Ratio % Change” value [2] was −2.0%, the “Alanine Aminotransferase % Change” value [2] was −0.7% and the “Albumin % Change” value [2] was 1.5%. For the same compound, the “Alkaline Phosphatase % Change” value [2] was 1.1%, the “Aspartate Aminotransferase % Change” value [2] was 0.9% and the “Blood Urea Nitrogen % Change” value [2] was −10.4%. The “CO2 % Change” value [2] was 1.0%, the “Chloride % Change” value [2] was −0.5% and the “Cholesterol Ratio % Change” value [2] was −0.4%. For the same compound, the “Creatinine % Change” value [2] was −1.5%, the “Direct Bilirubin % Change” value [2] was 8.6% and the “Gamma-glutamyl % Change” value [2] was 0.9%. The “Globulin % Change” value [2] was 1.6%, the “Glucose % Change” value [2] was 4.4% and the “HDL % Change” value [2] was 1.3%. For the same compound, the “Iron % Change” value [2] was 13.7%, the “Iron Binding Capacity % Change” value [2] was 3.5% and the “Iron Saturation % Change” value [2] was 6.0%. The “LDL % Change” value [2] was 2.1%, the “Lactate Dehydrogenase % Change” value [2] was 1.5% and the “Phosphorus % Change” value [2] was −13.2%. For the same compound, the “Potassium % Change” value [2] was 10.6%, the “Protein % Change” value [2] was 1.6% and the “Sodium % Change” value [2] was −1.1%. For the same compound, the “Total Bilirubin % Change” value [2] was 22.6%, the “Total Cholesterol % Change” value [2] was 0.7% and the “Triglycerides % Change” value [2] was −8.7%. For the same compound, the “UIBC % Change” value [2] was 0.1%, the “Uric Acid % Change” value [2] was −2.2% and the “Alanine Aminotransferase” value [3] was 17.4 ± 2.7 IU/L. The Albumin [3] was 4.1 ± 0.1 g/dL, the “Alkaline Phosphatase” value [3] was 66.0 ± 6.3 IU/L and the “Aspartate Aminotransferase” value [3] was 28.0 ± 7.9 IU/L. For the same compound, the “Blood Urea Nitrogen” value [3] was 14.4 ± 0.8 mg/dL, the CO2 [3] was 24.0 ± 0.5 mEq/L and the Chloride [3] was 102.9 ± 0.6 mEq/L. For the same compound, the “Cholesterol Ratio” value [3] was 3.3 ± 0.2, the Globulin [3] was 2.3 ± 0.2 g/dL and the Glucose [3] was 74.1 ± 1.7 mg/dL. For the same compound, the HDL [3] was 48.6 ± 4.6 mg/dL, the Iron [3] was 83.3 ± 16.4 µg/dL and the “Iron Binding Capacity” value [3] was 328.0 ± 32.8 µg/dL. The “Iron Saturation” value [3] was 29.1 ± 9.0%, the LDL [3] was 87.5 ± 5.7 mg/dL and the “Lactate Dehydrogenase” value [3] was 164.8 ± 12.5 IU/L. It also gave a Phosphorus [3] of 4.1 ± 0.05 mg/dL, a Potassium [3] of 4.0 ± 0.03 mEq/L and a Protein [3] of 6.3 ± 0.2 g/dL. For the same compound, the Sodium [3] was 139.3 ± 0.8 mEq/L, the “Total Cholesterol” value [3] was 154.4 ± 6.9 mg/dL and the Triglycerides [3] was 91.8 ± 16.1 mg/dL. For the same compound, the UIBC [3] was 244.8 ± 42.3 µg/dL, the “Uric Acid” value [3] was 4.0 ± 0.4 mg/dL and the Gamma-glutamyl [3] was 13.3 ± 1.2.
